Our source for the IC50 and activation values is article PMC10498722 (Chemical Science, 2023).

Experiment [1] has as its target T1, glutathione peroxidase 4 (GPX4) (Homo sapiens, UniProt P36969).
T1 sequence (P36969 28-197): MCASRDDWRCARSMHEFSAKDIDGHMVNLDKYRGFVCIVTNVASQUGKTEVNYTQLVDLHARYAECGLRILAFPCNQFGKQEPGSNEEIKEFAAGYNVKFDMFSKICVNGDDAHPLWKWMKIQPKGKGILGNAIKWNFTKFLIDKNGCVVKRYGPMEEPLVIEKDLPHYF
Kind of experiment: GPX4 inhibitor screening assay kit. The format is biochemical.

Experiment [2] addresses T1, glutathione peroxidase 4 (GPX4). Kind of experiment: GPX4 assay kit. The format is biochemical. To be noted: read-out: % enhancement at 100 μM.

As usually defined, the IC50 is the point on the concentration scale where inhibition reaches its midpoint. Read a high IC50 as a need for much substance. In experiment [1], `COC(=O)c1ccc([C@H]2c3[nH]c4ccccc4c3C[C@H](C(=O)OC)N2C(=O)CCl)cc1` [RSL3] returned an IC50 of 17.17 ± 0.17 µM. As for `O=C(OC[C@H]1O[C@@H](OC(=O)c2cc(O)c(O)c(OC(=O)c3cc(O)c(O)c(O)c3)c2)[C@H](OC(=O)c2cc(O)c(O)c(OC(=O)c3cc(O)c(O)c(O)c3)c2)[C@@H](OC(=O)c2cc(O)c(O)c(OC(=O)c3cc(O)c(O)c(O)c3)c2)[C@@H]1OC(=O)c1cc(O)c(O)c(OC(=O)c2cc(O)c(O)c(O)c2)c1)c1cc(O)c(O)c(OC(=O)c2cc(O)c(O)c(O)c2)c1` [TA, tannic acid], the activation at 100 µM in experiment [2] came out at 19%.
